These results are taken from publication PMC4650696, “Novel anti-thrombotic agent for modulation of protein disulfide isomerase family member ERp57 for prophylactic therapy” (Scientific Reports, 2015).

For assay [1], the target named is T1, ERp72 (Rattus norvegicus, UniProt P38659).
T1 construct: gene Pdia4; endogenous, rat platelet lysate
T1 sequence (P38659 21-643): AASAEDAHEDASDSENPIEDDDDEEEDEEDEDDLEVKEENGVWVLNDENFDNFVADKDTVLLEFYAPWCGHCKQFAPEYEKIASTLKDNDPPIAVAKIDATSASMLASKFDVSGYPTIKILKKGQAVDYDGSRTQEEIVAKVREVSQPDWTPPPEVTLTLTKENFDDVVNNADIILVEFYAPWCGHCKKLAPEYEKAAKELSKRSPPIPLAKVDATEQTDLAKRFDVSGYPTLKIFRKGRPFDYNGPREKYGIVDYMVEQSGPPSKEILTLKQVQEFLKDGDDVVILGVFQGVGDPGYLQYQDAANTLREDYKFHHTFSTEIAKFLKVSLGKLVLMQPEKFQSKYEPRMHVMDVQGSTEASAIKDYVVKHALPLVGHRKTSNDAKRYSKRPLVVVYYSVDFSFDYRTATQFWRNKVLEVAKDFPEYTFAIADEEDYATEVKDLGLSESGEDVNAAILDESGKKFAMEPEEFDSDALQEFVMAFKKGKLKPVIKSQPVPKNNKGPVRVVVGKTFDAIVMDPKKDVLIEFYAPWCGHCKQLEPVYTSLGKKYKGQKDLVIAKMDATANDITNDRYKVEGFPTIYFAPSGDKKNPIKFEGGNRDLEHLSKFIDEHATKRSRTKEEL
Briefly: NeutrAvidin pull-down from platelet lysate, LC-MS/MS and immunoblot, competed by excess ADTM. In kind it is cell-based.

The target in assay [2] is T2, ERp57 (Rattus norvegicus, UniProt P11598).
T2 construct: gene Pdia3; endogenous, rat platelet lysate
T2 sequence (P11598 25-505): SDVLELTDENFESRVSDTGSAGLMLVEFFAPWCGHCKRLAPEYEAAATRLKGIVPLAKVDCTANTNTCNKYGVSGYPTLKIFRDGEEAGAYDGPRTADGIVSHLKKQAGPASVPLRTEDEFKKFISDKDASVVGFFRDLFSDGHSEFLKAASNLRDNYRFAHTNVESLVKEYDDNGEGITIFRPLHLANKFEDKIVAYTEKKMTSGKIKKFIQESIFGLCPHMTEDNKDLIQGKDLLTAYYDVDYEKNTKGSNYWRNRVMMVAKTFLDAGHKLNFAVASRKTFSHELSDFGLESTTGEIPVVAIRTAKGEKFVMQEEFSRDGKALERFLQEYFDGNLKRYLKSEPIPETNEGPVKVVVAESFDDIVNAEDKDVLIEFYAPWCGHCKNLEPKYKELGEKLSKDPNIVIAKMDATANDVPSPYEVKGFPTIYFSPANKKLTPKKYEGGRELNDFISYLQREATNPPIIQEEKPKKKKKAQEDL
The description is as above. It counts as cell-based.

The target in assay [3] is T3, ERp5 (Rattus norvegicus, UniProt Q63081).
T3 construct: gene Pdia6; endogenous, rat platelet lysate
T3 sequence (Q63081 20-440): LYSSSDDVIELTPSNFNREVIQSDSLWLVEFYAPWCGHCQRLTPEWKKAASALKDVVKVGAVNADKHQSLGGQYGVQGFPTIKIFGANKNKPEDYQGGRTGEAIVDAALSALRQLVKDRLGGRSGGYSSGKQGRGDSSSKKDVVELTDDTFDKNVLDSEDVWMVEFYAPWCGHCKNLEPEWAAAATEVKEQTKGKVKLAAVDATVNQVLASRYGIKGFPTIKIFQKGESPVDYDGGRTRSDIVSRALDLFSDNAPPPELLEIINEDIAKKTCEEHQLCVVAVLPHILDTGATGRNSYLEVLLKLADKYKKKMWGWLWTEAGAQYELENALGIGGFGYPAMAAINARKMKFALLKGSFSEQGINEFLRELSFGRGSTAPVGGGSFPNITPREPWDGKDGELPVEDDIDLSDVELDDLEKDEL
Described as above. In kind it is cell-based.

In the next assay the target is T4, PDI (Homo sapiens, UniProt P07237).
T4 construct: gene P4HB; recombinant PDI
T4 sequence (P07237 18-508): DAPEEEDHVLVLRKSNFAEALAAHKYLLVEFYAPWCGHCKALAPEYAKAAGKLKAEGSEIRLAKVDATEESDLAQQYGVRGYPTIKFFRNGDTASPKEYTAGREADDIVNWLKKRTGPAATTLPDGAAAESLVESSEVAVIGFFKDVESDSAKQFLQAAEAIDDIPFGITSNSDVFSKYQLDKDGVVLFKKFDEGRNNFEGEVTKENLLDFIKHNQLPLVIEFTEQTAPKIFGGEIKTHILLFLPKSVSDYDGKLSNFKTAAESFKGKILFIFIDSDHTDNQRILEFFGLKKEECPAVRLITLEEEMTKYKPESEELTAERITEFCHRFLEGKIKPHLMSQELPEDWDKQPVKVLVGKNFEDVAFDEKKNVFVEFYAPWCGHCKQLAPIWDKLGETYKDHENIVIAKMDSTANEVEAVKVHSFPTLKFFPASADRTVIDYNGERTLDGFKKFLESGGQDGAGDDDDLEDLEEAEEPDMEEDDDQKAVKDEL
Briefly: insulin reduction turbidity assay with recombinant PDI (weak). In kind it is biochemical.

In assay [4] the target is T5, ERp57 (Homo sapiens, UniProt P30101).
T5 construct: gene PDIA3; human recombinant ERp57
T5 sequence (P30101 25-505): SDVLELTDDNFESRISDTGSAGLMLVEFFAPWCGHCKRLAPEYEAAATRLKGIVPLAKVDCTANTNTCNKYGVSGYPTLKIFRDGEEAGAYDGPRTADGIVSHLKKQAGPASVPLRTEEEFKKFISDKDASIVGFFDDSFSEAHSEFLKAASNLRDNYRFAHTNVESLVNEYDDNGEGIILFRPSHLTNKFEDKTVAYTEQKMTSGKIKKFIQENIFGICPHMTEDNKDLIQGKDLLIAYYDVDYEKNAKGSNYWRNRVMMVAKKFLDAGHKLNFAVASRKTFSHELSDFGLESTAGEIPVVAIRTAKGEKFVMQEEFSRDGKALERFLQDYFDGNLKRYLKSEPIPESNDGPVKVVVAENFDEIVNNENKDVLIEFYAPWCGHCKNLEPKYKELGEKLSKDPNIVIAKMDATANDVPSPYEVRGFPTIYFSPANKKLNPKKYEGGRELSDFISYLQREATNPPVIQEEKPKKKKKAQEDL
The experiment in a line: insulin reduction turbidity assay with recombinant ERp57; irreversible after dilution; also competes with BAA in rat platelet lysate pull-down. It counts as biochemical.

Assay [5] deals with T3, ERp5. The experiment in a line: competition of BAA pull-down by excess untagged ADTM, immunoblot; […] inhibition of ERp5 activity at […]. It counts as cell-based. In general terms: In western blotting, separated proteins are transferred to a membrane and probed.
Assay [6] addresses T1, ERp72. Briefly: competition of BAA pull-down by excess untagged ADTM, immunoblot; only […] inhibition of recombinant ERp72 at […]. In kind it is cell-based.

In the case of `O=C1N[C@H]2[C@H](CS[C@H]2CCCCC(=O)O[C@H](Cc2ccc(O)c(O)c2)C(=O)OCc2ccccc2)N1` [BAA], the “NeutrAvidin pull-down from platelet lysate, LC-MS/MS and immunoblot, competed by” value on ERp72 [1] was “We confirmed the identity of the pulled-down proteins as ERp72, ERp57 and ERp5 with their respective antibodies”; at ERp57 [2] it was “specificity of the binding between BAA and these targets (ERp72, ERp57 and ERp5) could be demonstrated by the competition”; on ERp5 [3], “We confirmed the identity of the pulled-down proteins as ERp72, ERp57 and ERp5 with their respective antibodies”.

As for `CC(=O)Oc1ccc(C[C@@H](OC(C)=O)C(=O)OCc2nc(C)c(C)nc2C)cc1OC(C)=O` [ADTM], the inhibition at 300 µM came to 30% at PDI, 38% at ERp5 [5] and 18% on ERp72 [6]. Further, the IC50 on ERp57 [4] lay in the range of 100 to 300 µM.

What is called inhibition is the drop in the measured response relative to a control, in per cent. By IC50 is commonly meant the concentration at which inhibition is half-maximal.
